As a reminder, the Ki is the equilibrium dissociation constant of an inhibitor or competing ligand from its target.

The source of these data is patent US5126258A (priority 1988, dated 1992).

The conditions of data set [1]: leaving group alcohol; source not stated; cited from earlier work.
The target in data set [2] is monoclonal antibody P3 6D4. Kind of data set: Kinetics and inhibition of catalytic ester hydrolysis by monoclonal antibody P3 6D4, spectrophotometric at 245 nm. It counts as biochemical, mouse. The conditions noted are these: pH 8.0, figure = Ki × 10^7, read-out: Ki. On the procedure:
FIG. 4 illustrates a Lineweaver-Burk plot for the hydrolysis of Compound 7 by anti-Compound 4 monoclonal antibody from hybridoma P3 6D4. Velocities were determined spectrophotometrically by measuring initial rates during the first linear portion of the reaction as described with reference to Table 2. The substrate concentrations were corrected for amounts consumed during initial equilibration. ( ) No inhibitor present. ( ) Inhibited by 50 nM phosphonate (Compound 3). ( ) Inhibited by 100 nM phosphonate (Compound 3).
In particular, an exemplary monoclonal receptor was produced by the standard hybridoma technology of Kohler et al., Nature, 256, 495 (1975). Specifically, female 129G1X^+ mice were immunized by intraperitoneal injection with an inoculum of 100 micrograms of conjugate (e.g., Compound 4i bound to KLH) in 300 microliters of a 1:1 mixture of phosphate buffered saline (PBS) pH 7.4 and complete Freund's adjuvant. Two weeks later, the mice were again injected in a like manner with 50 micrograms of the foregoing conjugate in 300 microliters of a 1:1 mixture of PBS (pH 7.4) and 10 mg/ml alum. After an additional eight weeks, the mice were immunized intravenously with 50 micrograms of the conjugate in 200 microliters of PBS (pH 7.4). The spleens were removed from the mice 4 days later, and the spleen cells were fused to myeloma cells.
Reaction kinetics were measured spectrophotometrically by following the absorption change at 245 nanometers. […] Kinetic parameters obtained with these substrates are shown in Table 2 along with the inhibition constants obtained with phosphonate (Compound 3). Under these conditions, the acceleration above the background rate is about 960-fold for Compound 7 and about 200-fold for Compound 8 (corrected for the background hydrolysis rate).
*The kinetic parameters shown in Table 2 are for the hydrolysis of esters
(Compounds 7 and 8) by monoclonal antibody P3 6D4. A PerkinElmer lambda 4
spectrophotometer, equipped with thermostatted cell holder, was used to
measure absorption changes at 245 nm. Cells containing the substrate at
concentrations of 0.5 to 50 micromolar in phosphate buffer (50 mM, pH 8.0
were preequilibrated at 25 degrees C. The concentration of active IgG in
stock solution was found by reacting with the coumarin ester (Compound 5)
and measuring the yield of hydroxycoumarin by fluorescence. The kinetic
run was initiated by addition of an aliquot of the antibody stock solutio
(in 50 mM phosphate buffer, pH 8.0) calculated to give 100 nM IgG. The
mixture was allowed to equilibrate for 2 to 3 minutes and the rate was
then measured during the subsequent 10 minutes. The absorption change for
complete hydrolysis was determined by treatment with esterase. Kinetic
parameters were obtained from L ineweaverBurk plots (see FIG. 4).
Inhibition constants were determined from a plot of the slopes with at
least four inhibitor concentrations of Compound 3. The data were analyzed

Data set [3] is described as follows: Metal chelate formation constants, potentiometric titration. It counts as physicochemical. To be noted: titrimetric analysis, estimated; read-out: formation constants of 1:1 chelates with divalent metal ions. An excerpt: Such a possibility was investigated using a dipicolinic acid halide to derivatize the ortho aminomethyl group of a phenolic structure (see Compounds 3 and 4 of FIG. 2). The dealkylation of the phosphonyl and acyl esters of this adduct exposes the potential ligands for the formation of a metal chelate. The intrinsic stability of complexes of this ligand, however, determined with divalent transition metals such as cobalt, zinc and copper, are probably too low to expect these chelates to maintain their integrity in the immunization process. In fact, the formation constants of 1:1 chelates of Compound 3 with the divalent metal ions are in the range of 10^4 -10^5 M^-1 as estimated by titrimetric analysis.
Determination of pKa and stability constants K:
All determinations of pKa and stability constants (K) are performed according to the method of Martell. This method consisted of potentiometric titration of the particular compound (at a concentration of about 1.4 mM) in the absence of and in the presence of the metal ion being investigated. The ionic strength was maintained constant using 0.1M NaClO4 as a supporting electrolyte. All measurements were carried out under nitrogen at 25 degrees C plus or minus 0.01 degrees C.

Like-named read-outs stand apart in the source and are kept apart here.

As to `Oc1cccc2ccccc12` [alpha-naphthol], the pKa entry in data set [1] was “about 9.3”.
With `CCOP(=O)(Cc1ccc(NC(=O)C(F)(F)F)cc1)Oc1ccc(NC(C)=O)cc1CNC(=O)c1cccc(C(=O)OC)n1` (stereo not shown) [Compound 3], the Ki in data set [2] (inhibitor Compound 3, substrate Compound 7 (table line 7)) came to 160 nM; in data set [2] (inhibitor Compound 3, substrate Compound 8 (table line 8)), 65 nM. For the same compound, in data set [3], the Kd was 10000 to 100000 nM.
